Counter-ions that a name gives are not always drawn. Like-named read-outs stand apart in the source and are kept apart here.

The values that follow come from patent US9657006B2, “Macrocyclic factor VIIa inhibitors” (BRISTOL-MYERS SQUIBB COMPANY, priority 2013, dated 2017).

The conditions of series [1]: amide bond, 14-membered ring.
Series [2] deals with T1, FVIIa (Homo sapiens, UniProt P08709).
T1 construct: with about 1% of the total amount in the proteolytically active form factor VIIa
Put plainly: FVIIa Ki (25° C.): FVIIa peptide substrate assay. The format is biochemical. The conditions noted are these: S2288 peptide substrate, full-length human TF. The method, then:
The effectiveness of compounds of the present invention as inhibitors of the coagulation Factors, VIIa, IXa, Xa, XIa, XIIa, plasma kallikrein or thrombin, tissue kallikrein and activated protein C, can be determined using a relevant purified serine protease, respectively, and an appropriate synthetic substrate. The rate of hydrolysis of the chromogenic or fluorogenic substrate by the relevant serine protease was measured both in the absence and presence of compounds of the present invention. […] A decrease in the rate of absorbance or fluorescence change in the presence of inhibitor is indicative of enzyme inhibition. Such methods are known to one skilled in the art. The results of this assay are expressed as the inhibitory constant, Ki.
a. FVIIa Ki (25° C.): FVIIa Peptide Substrate Assay
S2288 (range of concentrations) and FVIIa inhibitor were incubated for 15 minutes (min) at 25° C. Reactions were initiated by addition of a solution of full-length human TF (6 nM), FVIIa (0.75 nM), and PCPS (25 μM). FVIIa hydrolyses S2288, which was monitored for up to 60 min at 405 nm. Steady-state reaction velocity data (vs) was globally fit to Equation 1 for competitive inhibition. vs=Vmax[S]/([S]+Km(1+[I]/Ki)) (Eq. 1) where Vmax is maximum velocity, [S] is substrate concentration, Km is the Michaelis-Menten constant, [I] is the inhibitor concentration, and Ki is the inhibitor dissociation constant (GraFit, version 5, Erithacus Software Ltd, West Sussex, UK).

T1 sequence (P08709 213-466 limits assumed): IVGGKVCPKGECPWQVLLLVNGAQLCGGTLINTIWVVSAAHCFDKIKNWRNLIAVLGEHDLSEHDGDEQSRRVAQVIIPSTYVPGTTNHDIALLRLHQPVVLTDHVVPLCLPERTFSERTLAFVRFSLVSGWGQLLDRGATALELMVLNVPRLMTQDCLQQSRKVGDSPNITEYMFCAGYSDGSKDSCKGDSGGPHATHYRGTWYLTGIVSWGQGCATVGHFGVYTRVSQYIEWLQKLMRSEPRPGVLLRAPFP
T1 sequence (P08709 61-212 limits assumed): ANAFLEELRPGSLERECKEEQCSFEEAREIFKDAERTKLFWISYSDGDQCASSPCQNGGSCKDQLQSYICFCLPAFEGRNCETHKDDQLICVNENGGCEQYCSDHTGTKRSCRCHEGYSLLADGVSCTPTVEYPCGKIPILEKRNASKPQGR
T1 sequence (P13726 33-295 partner): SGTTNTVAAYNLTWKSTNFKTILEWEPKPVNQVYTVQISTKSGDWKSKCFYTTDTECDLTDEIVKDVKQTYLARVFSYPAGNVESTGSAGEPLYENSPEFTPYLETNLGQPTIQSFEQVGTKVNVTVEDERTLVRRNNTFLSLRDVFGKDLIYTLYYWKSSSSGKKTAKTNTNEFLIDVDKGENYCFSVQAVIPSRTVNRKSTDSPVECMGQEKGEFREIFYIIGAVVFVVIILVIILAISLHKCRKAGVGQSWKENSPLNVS

In turn, `CN1Cc2cc(ccc2S(=O)(=O)C2CC2)NC(=O)CCc2cccc(c2)C(Nc2ccc3c(N(C(=O)OC(C)(C)C)C(=O)OC(C)(C)C)ncc(F)c3c2)C1=O` (centres unmarked) gave a ring closure, isolated yield in series [1] (from CNCc1cc(NC(=O)CCc2cccc(C(Nc3ccc4c(N(C(=O)OC(C)(C)C)C(=O)OC(C)(C)C)ncc(F)c4c3)C(=O)O)c2)ccc1S(=O)(=O)C1CC1, BOP/DMAP/DIPEA, DCM/DMF, 25.0 °C) of 41%.
Turning to `C[C@@H]1CC(=O)Nc2ccc(OC(F)F)c(c2)CN(C)C(=O)C(Nc2ccc(C#N)cc2)c2ccc(OCc3ccccc3)c1c2` (some centres unmarked), in series [1] (from CNCc1cc(NC(=O)C[C@@H](C)c2cc(C(Nc3ccc(C#N)cc3)C(=O)O)ccc2OCc2ccccc2)ccc1OC(F)F, BOP), the ring closure, isolated yield is 64%.
For `COc1cc2cc(c1)C(Nc1ccc3c(N(C(=O)OC(C)(C)C)C(=O)OC(C)(C)C)ncc(F)c3c1)C(=O)N(C)Cc1cc(ccc1S(=O)(=O)C1CC1)NC(=O)CC2` (centres unmarked), the ring closure, isolated yield in series [1] (from CNCc1cc(NC(=O)CCc2cc(OC)cc(C(Nc3ccc4c(N(C(=O)OC(C)(C)C)C(=O)OC(C)(C)C)ncc(F)c4c3)C(=O)O)c2)ccc1S(=O)(=O)C1CC1, BOP/DMAP/DIPEA, DCM/DMF, 25.0 °C, 12.0 h) was found to be 69%.
`C[C@H]1CC(=O)Nc2ccc(S(=O)(=O)C3CC3)c(c2)CN(C)C(=O)C(Nc2ccc3c(N(C(=O)OC(C)(C)C)C(=O)OC(C)(C)C)ncc(F)c3c2)c2ccc(OCc3ccccc3)c1c2` (some centres unmarked) returned a ring closure, isolated yield in series [1] (from CNCc1cc(NC(=O)C[C@H](C)c2cc(C(Nc3ccc4c(N(C(=O)OC(C)(C)C)C(=O)OC(C)(C)C)ncc(F)c4c3)C(=O)O)ccc2OCc2ccccc2)ccc1S(=O)(=O)C1CC1, BOP/DMAP/DIPEA, DCM/DMF, 25.0 °C) of 24%.
`C[C@@H]1CC(=O)Nc2ccc(S(=O)(=O)C3CC3)c(c2)CN(C)C(=O)C(Nc2ccc3c(N(C(=O)OC(C)(C)C)C(=O)OC(C)(C)C)ncc(F)c3c2)c2ccc(OCc3ccccc3)c1c2` (some centres unmarked) returned a ring closure, isolated yield in series [1] (from CNCc1cc(NC(=O)C[C@@H](C)c2cc(C(Nc3ccc4c(N(C(=O)OC(C)(C)C)C(=O)OC(C)(C)C)ncc(F)c4c3)C(=O)O)ccc2OCc2ccccc2)ccc1S(=O)(=O)C1CC1, BOP) of 19%.
`COc1c(F)cc2cc1CCC(=O)Nc1ccc(S(=O)(=O)C3CC3)c(c1)CN(C)C(=O)C2Nc1ccc2c(N(C(=O)OC(C)(C)C)C(=O)OC(C)(C)C)ncc(F)c2c1` (centres unmarked) showed a ring closure, isolated yield in series [1] (from CNCc1cc(NC(=O)CCc2cc(C(Nc3ccc4c(N(C(=O)OC(C)(C)C)C(=O)OC(C)(C)C)ncc(F)c4c3)C(=O)O)cc(F)c2OC)ccc1S(=O)(=O)C1CC1, BOP/DMAP/DIPEA, DCM/DMF, 25.0 °C) of 18%.
In series [1] (from CNCc1cc(NC(=O)CCc2cc(C(Nc3ccc4c(N(C(=O)OC(C)(C)C)C(=O)OC(C)(C)C)ncc(F)c4c3)C(=O)O)ccc2C2CC2)ccc1S(=O)(=O)C1CC1, BOP), `CN1Cc2cc(ccc2S(=O)(=O)C2CC2)NC(=O)CCc2cc(ccc2C2CC2)C(Nc2ccc3c(N(C(=O)OC(C)(C)C)C(=O)OC(C)(C)C)ncc(F)c3c2)C1=O` (centres unmarked) came in with a ring closure, isolated yield of 82%.
For `CN1Cc2cc(cc(F)c2OCC(F)F)NC(=O)CCc2cc(ccc2OCC(F)F)C(Nc2ccc(C#N)cc2)C1=O` (centres unmarked), the ring closure, isolated yield in series [1] (from CNCc1cc(NC(=O)CCc2cc(C(Nc3ccc(C#N)cc3)C(=O)O)ccc2OCC(F)F)cc(F)c1OCC(F)F, BOP) is 62%.
`CN1Cc2cc(ccc2S(=O)(=O)C(F)(F)F)NC(=O)CCc2cc(ccc2OCC(F)F)C(Nc2ccc3c(N(C(=O)OC(C)(C)C)C(=O)OC(C)(C)C)ncc(F)c3c2)C1=O` (centres unmarked) yielded a ring closure, isolated yield in series [1] (from CNCc1cc(NC(=O)CCc2cc(C(Nc3ccc4c(N(C(=O)OC(C)(C)C)C(=O)OC(C)(C)C)ncc(F)c4c3)C(=O)O)ccc2OCC(F)F)ccc1S(=O)(=O)C(F)(F)F, BOP) of 45%.
Regarding `CN1Cc2cc(ccc2S(=O)(=O)C2CC2)NC(=O)CCc2cc(ccc2F)C(Nc2ccc3c(N(C(=O)OC(C)(C)C)C(=O)OC(C)(C)C)ncc(F)c3c2)C1=O` (centres unmarked), in series [1] (from CNCc1cc(NC(=O)CCc2cc(C(Nc3ccc4c(N(C(=O)OC(C)(C)C)C(=O)OC(C)(C)C)ncc(F)c4c3)C(=O)O)ccc2F)ccc1S(=O)(=O)C1CC1, BOP/DMAP/DIPEA, DCM/DMF, 25.0 °C, 12.0 h), the ring closure, isolated yield turned out to be 30%.
Regarding `CN1Cc2cc(ccc2S(=O)(=O)C2CC2)NC(=O)CCc2cc(ccc2OCc2ccccc2)[C@@H](Nc2ccc3c(N)ncc(F)c3c2)C1=O` (single isomer, unassigned) [Example 18], in series [2], the Ki – broadly, the dissociation constant of the complex between target and ligand, obtained from inhibition or displacement – worked out at 6 nM.
`CN1Cc2cc(cc(F)c2OC(CF)CF)NC(=O)CCc2cc(ccc2OCC(F)F)[C@@H](Nc2ccc(C(=N)N)cc2)C1=O` (single isomer, unassigned) [Example 42, trifluoroacetic acid salt] came in with a Ki in series [2] of 5 nM.
The same measure, in the same setting: for `COc1ccc2cc1[C@@H](C)CN(C)C(=O)Nc1ccc(S(=O)(=O)C3CC3)c(c1)CN(C)C(=O)[C@@H]2Nc1ccc2c(N)ncc(F)c2c1` (single isomer, unassigned) [Example 31] the value was 5 nM; for `C[C@H]1CC(=O)Nc2ccc(S(=O)(=O)C3CC3)c(c2)CN(C)C(=O)[C@H](Nc2ccc3c(N)ncc(F)c3c2)c2ccc(OCC(F)F)c1c2` (single isomer, unassigned) [Example 32, trifluoroacetic acid salt], 31 nM; for `COc1ccc2cc1COCC(=O)Nc1ccc(S(=O)(=O)C3CC3)c(c1)CN(C)C(=O)[C@@H]2Nc1ccc2c(N)nccc2c1` [Example 9, (R)-5-(1-Amino-isoquinolin-6-ylamino)-19-cyclopropanesulfonyl-9-methoxy-3-methyl-12-oxa-3,15-diaza-tricyclo[14.3.1.1^6,10]henicosa-1(19),6(21),7,9,16(20),17-hexaene-4,14-dione trifluoroacetic acid salt+Enantiomer], 23 nM.
In turn, `CN1Cc2cc(cc(F)c2OC(F)F)NC(=O)CCc2cccc(c2)C(Nc2ccc(C#N)cc2)C1=O` (centres unmarked) yielded a ring closure, isolated yield in series [1] (from CN(Cc1cc(N)cc(F)c1OC(F)F)C(=O)C(Nc1ccc(C#N)cc1)c1cccc(CCC(=O)O)c1, BOP/DMAP/DIPEA, DCM/DMF, 4.8 mM, 40.0 °C, 21.0 h) of 80%.
For the compound `CN1Cc2cc(ccc2S(=O)(=O)C2CC2)NC(=O)CCc2cccc(c2)C(Nc2ccc3c(N(C(=O)OC(C)(C)C)C(=O)OC(C)(C)C)nccc3c2)C1=O` (centres unmarked), the ring closure, isolated yield in series [1] (from CNCc1cc(NC(=O)CCc2cccc(C(Nc3ccc4c(N(C(=O)OC(C)(C)C)C(=O)OC(C)(C)C)nccc4c3)C(=O)O)c2)ccc1S(=O)(=O)C1CC1, BOP/DMAP/DIPEA, DCM/DMF, 23.3 mM, 25.0 °C, 12.0 h) was determined as 50%.
For the compound “(R)-11-(5-Amino-8-fluoro-naphthalen-2-ylamino)-16-cyclopropanesulfonyl-7-cyclopropyl-13-methyl-2,13-diaza-tricyclo[13.3.1.1^6,10]icosa-1(18),6,8,10(20),15(19),16-hexaene-3,12-dione trifluoroacetic acid salt [Example 36]”, the Ki in series [2] was 5 nM.
Consider `CN1Cc2cc(cc(F)c2OC(CF)CF)NC(=O)CCc2cc(ccc2OCC(F)F)C(Nc2ccc(C#N)cc2)C1=O` (centres unmarked), for which the ring closure, isolated yield in series [1] (from CNCc1cc(NC(=O)CCc2cc(C(Nc3ccc(C#N)cc3)C(=O)O)ccc2OCC(F)F)cc(F)c1OC(CF)CF, BOP) was 44%.
Take `COc1ccc2cc1CCC(=O)Nc1ccc(S(=O)(=O)C(F)(F)F)c(c1)CN(C)C(=O)[C@@H]2Nc1ccc2c(N)nccc2c1` (single isomer, unassigned) [Example 34, trifluoroacetic acid salt]: the affinity in series [2], expressed as Ki, was 5 nM.
The same measure, in the same setting: the figure for `COc1c(F)cc2cc1CCC(=O)Nc1ccc(S(=O)(=O)C3CC3)c(c1)CN(C)C(=O)[C@@H]2Nc1ccc2c(N)ncc(F)c2c1` (single isomer, unassigned) [Example 30] is 10 nM; for `CN1CCc2cc(ccc2OCc2ccccc2)C(Nc2ccc3c(N)ncc(F)c3c2)C(=O)N(C)Cc2cc(ccc2S(=O)(=O)C2CC2)NC1=O` (centres unmarked) [Example 19, 5-(1-Amino-4-fluoro-isoquinolin-6-ylamino)-9-benzyloxy-19-cyclopropanesulfonyl-3,13-dimethyl-3,13,15-triaza-tricyclo[14.3.1.1^6,10]henicosa-1(19),6(21),7,9,16(20),17-hexaene-4,14-dione, trifluoroacetic acid salt] it is 115 nM; for “4-((R)-16-Difluoromethoxy-17-fluoro-3,12-dioxo-2,13-diaza-tricyclo[13.3.1.1^6,10]icosa-1(19),6,8,10(20),15,17-hexaen-11-ylamino)-benzamidine trifluoroacetic acid salt [Example 37]” it is 11 nM.
Same read-out and setting: the figure for `CN1Cc2cc(cc(F)c2OCC(F)F)NC(=O)CCc2cc(ccc2OCC(F)F)[C@@H](Nc2ccc(C(=N)N)cc2)C1=O` (single isomer, unassigned) [Example 40, trifluoroacetic acid salt] is 5 nM.
Still for that read-out and setting: the figure for `CN1Cc2cc(ccc2S(=O)(=O)C2CC2)NC(=O)CCc2cccc(c2)[C@@H](Nc2ccc3c(N)nccc3c2)C1=O` (single isomer, unassigned) [Example 8] is 5 nM.
In series [2], `C[C@@H]1COC(=O)Nc2ccc(S(=O)(=O)C3CC3)c(c2)CN(C)C(=O)[C@H](Nc2ccc3c(N)nccc3c2)c2cccc1c2` (single isomer, unassigned) [Example 7] had a Ki of 115 nM.
